Test results taken from patent US20230227427A1, “IL-17A MODULATORS” (SANOFI, priority 2010, published 2023).

Biological target: T1, human recombinant IL-17A (Homo sapiens, UniProt Q16552)
T1 construct: purchased R&D Systems 7955-IL/CF
T1 sequence (Q16552 24-155): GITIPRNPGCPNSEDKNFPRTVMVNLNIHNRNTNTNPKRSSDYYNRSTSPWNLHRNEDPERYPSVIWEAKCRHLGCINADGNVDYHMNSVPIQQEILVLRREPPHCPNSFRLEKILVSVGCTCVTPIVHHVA
Experiment: IL-17A AlphaLISA assay (block binding of IL-17A to its receptor IL-17RA)
Conditions: compounds pre-incubated with the IL-17A for 24 h at room temperature; read-out: AlphaLISA pIC50 (converted)
Method: The ability of the compounds to block binding of IL-17A to its receptor, IL-17RA, was analysed in a competition assay using AlphaLISA technology (Perkin Elmer). The assay is a bead based AlphaLISA where the IL-17RA is captured on the acceptor bead via an Fc tag and IL-17A is captured on the streptavidin donor bead via a biotinylated anti-IL17A antibody.
Assay buffer was prepared by adding 0.05% Tween-20 (v/v) and 0.1% BSA to Phosphate Buffered Saline (PBS). The assay was carried out in 384-well white low volume plates (Corning 4512). 10 µL of a 7.5 nM stock of human recombinant IL-17A (R&D Systems 7955-IL/CF) diluted in assay buffer was dispensed into the assay plate and compounds or DMSO vehicle control were added in a volume of 75 nL using a D300 dispenser (Hewlett Packard). The compounds were pre-incubated with the IL-17A for 24 h at room temperature (or for 30 min, where indicated by * in Table A below) prior to addition of 5 μL of a 5 nM stock of human recombinant IL-17RA/Fc chimera (R&D Systems 177-IR-100) diluted in assay buffer. The IL-17A was incubated with the receptor for a further 90 minutes at room temperature before addition of 5 μL of a mixture of anti-human Fc IgG acceptor beads (75 μg/mL, Perkin Elmer AL103C) and anti-IL-17A biotin conjugated antibody (5 nM, Enzo Life Sciences, ENZ-ABS278-0100) in assay buffer. After a further 30 min incubation at room temperature, 5 μL of streptavidin donor beads ([…], Perkin Elmer 6760002S) were added and the plate was incubated for 3 h in the dark.
The luminescence signal was measured using an Enspire plate reader (Perkin Elmer) with excitation at 680 nm and emission at 615 nm. Data were analysed using GraphPad Prism and fitted to a 4-parameter logistic equation. The IC50 values were calculated using the DMSO vehicle as the negative control and a high concentration (6 μM) of a reference IL-17A inhibitor as the positive control.
Activity of the Example compounds is reported as a PIC50 value in Table A.

| IC50 [nM] | Compound |
| --- | --- |
| 158 | Cn1nccc1C(=O)N[C@H](C(=O)Nc1ccc(-c2ccc(=O)n(C)n2)c(F)c1)C(c1ccccc1)c1ccccc1 [Example 48, (S)—N-(1-((3-fluoro-4-(1-methyl-6-oxo-1,6-dihydropyridazin-3-yl)phenyl)amino)-1-oxo-3,3-diphenylpropan-2-yl)-1-methyl-1H-pyrazole-5-carboxamide] |
| 100 | Cn1nccc1C(=O)N[C@H](C(=O)Nc1ccc(-c2ccc(=O)[nH]c2)cc1)C(c1ccccc1)c1ccccc1 [Example 49, (S)-1-methyl-N-(1-oxo-1-((4-(6-oxo-1,6-dihydropyridin-3-yl)phenyl)amino)-3,3-diphenylpropan-2-yl)-1H-pyrazole-5-carboxamide] |
| 39.8 | Cc1cc(=O)[nH]cc1-c1ccc(NC(=O)[C@@H](NC(=O)c2ccnn2C)C(c2ccccc2)c2ccccc2)cc1 [Example 50, (S)-1-methyl-N-(1-((4-(4-methyl-6-oxo-1,6-dihydropyridin-3-yl)phenyl)amino)-1-oxo-3,3-diphenylpropan-2-yl)-1H-pyrazole-5-carboxamide] |
| 25.1 | Cn1nccc1C(=O)N[C@H](C(=O)Nc1ccc(-c2ccc(=O)n(C)c2)cc1)C(c1ccccc1)c1ccccc1 [Example 51, (S)-1-methyl-N-(1-((4-(1-methyl-6-oxo-1,6-dihydropyridin-3-yl)phenyl)amino)-1-oxo-3,3-diphenylpropan-2-yl)-1H-pyrazole-5-carboxamide] |
| 12.6 | Cn1nccc1C(=O)N[C@H](C(=O)Nc1ccc(-c2c[nH]c(=O)c3[nH]ccc23)cc1)C(c1ccccc1)c1ccccc1 [Example 52, (S)-1-methyl-N-(1-oxo-1-((4-(7-oxo-6,7-dihydro-1H-pyrrolo[2,3-c]pyridin-4-yl)phenyl)amino)-3,3-diphenylpropan-2-yl)-1H-pyrazole-5-carboxamide] |
| 251 | COc1cc(NC(=O)[C@@H](NC(=O)c2ccnn2C)C(c2ccccc2)c2ccccc2)ccc1-c1ccncc1CO [Example 53, (S)—N-(1-((4-(3-(hydroxymethyl)pyridin-4-yl)-3-methoxyphenyl)amino)-1-oxo-3,3-diphenylpropan-2-yl)-1-methyl-1H-pyrazole-5-carboxamide] |
| 316 | Cc1c(-c2ccc(NC(=O)[C@@H](NC(=O)c3ccnn3C)C(c3ccccc3)c3ccccc3)cc2C(F)(F)F)ccc(=O)n1C [Example 54, (S)—N-(1-((4-(1,2-dimethyl-6-oxo-1,6-dihydropyridin-3-yl)-3-(trifluoromethyl)phenyl)amino)-1-oxo-3,3-diphenylpropan-2-yl)-1-methyl-1H-pyrazole-5-carboxamide] |
| 100 | Cc1cncc(C)c1-c1ccc(NC(=O)[C@@H](NC(=O)c2ccnn2C)C(c2ccccc2)c2ccccc2)cc1Cl [Example 55, (S)—N-(1-((3-chloro-4-(3,5-dimethylpyridin-4-yl)phenyl)amino)-1-oxo-3,3-diphenylpropan-2-yl)-1-methyl-1H-pyrazole-5-carboxamide] |
| 100 | Cc1cc(-c2ccc(NC(=O)[C@@H](NC(=O)c3ccnn3C)C(c3ccccc3)c3ccccc3)cc2F)c(C)cn1 [Example 56, (S)—N-(1-((4-(2,5-dimethylpyridin-4-yl)-3-fluorophenyl)amino)-1-oxo-3,3-diphenylpropan-2-yl)-1-methyl-1H-pyrazole-5-carboxamide] |
| 126 | Cc1nccc(-c2ccc(NC(=O)[C@@H](NC(=O)c3ccnn3C)C(c3ccccc3)c3ccccc3)cc2F)c1C [Example 57, (S)—N-(1-((4-(2,3-dimethylpyridin-4-yl)-3-fluorophenyl)amino)-1-oxo-3,3-diphenylpropan-2-yl)-1-methyl-1H-pyrazole-5-carboxamide] |
| 316 | Cn1nccc1C(=O)N[C@H](C(=O)Nc1ccc(-c2ccc(=O)[nH]n2)c(F)c1)C(c1ccccc1)c1ccccc1 [Example 58, (S)—N-(1-((3-fluoro-4-(6-oxo-1,6-dihydropyridazin-3-yl)phenyl)amino)-1-oxo-3,3-diphenylpropan-2-yl)-1-methyl-1H-pyrazole-5-carboxamide] |
| 100 | CCn1nccc1C(=O)N[C@H](C(=O)Nc1ccc(-c2c[nH]nc2C)c(F)c1)C(c1ccccc1)c1ccccc1 [Example 59, (S)-1-ethyl-N-(1-((3-fluoro-4-(3-methyl-1H-pyrazol-4-yl)phenyl)amino)-1-oxo-3,3-diphenylpropan-2-yl)-1H-pyrazole-5-carboxamide] |
| 39.8 | Cc1noc(C)c1-c1ccc(NC(=O)[C@@H](NC(=O)c2ccnn2C)C(c2ccccc2)c2ccccc2)cc1F [Example 60, (S)—N-(1-((4-(3,5-dimethylisoxazol-4-yl)-3-fluorophenyl)amino)-1-oxo-3,3-diphenylpropan-2-yl)-1-methyl-1H-pyrazole-5-carboxamide] |
| 39.8 | CCn1nccc1C(=O)N[C@H](C(=O)Nc1ccc(-c2c(C)noc2C)c(F)c1)C(c1ccccc1)c1ccccc1 [Example 61, (S)—N-(1-((4-(3,5-dimethylisoxazol-4-yl)-3-fluorophenyl)amino)-1-oxo-3,3-diphenylpropan-2-yl)-1-ethyl-1H-pyrazole-5-carboxamide] |
| 794 | Cn1nccc1C(=O)N[C@H](C(=O)Nc1ccc(-c2cn[nH]c2)c(F)c1)C(c1ccccc1)c1ccccc1 [Example 62, (S)—N-(1-((3-fluoro-4-(1H-pyrazol-4-yl)phenyl)amino)-1-oxo-3,3-diphenylpropan-2-yl)-1-methyl-1H-pyrazole-5-carboxamide] |
| 158 | Cn1nccc1C(=O)N[C@H](C(=O)Nc1ccc(-c2cnc(=O)n(C)c2)c(F)c1)C(c1ccccc1)c1ccccc1 [Example 63, (S)—N-(1-((3-fluoro-4-(1-methyl-2-oxo-1,2-dihydropyrimidin-5-yl)phenyl)amino)-1-oxo-3,3-diphenylpropan-2-yl)-1-methyl-1H-pyrazole-5-carboxamide] |
| 398 | Cn1nccc1C(=O)N[C@H](C(=O)Nc1ccc(-c2cnc(=O)[nH]c2)c(F)c1)C(c1ccccc1)c1ccccc1 [Example 64, (S)—N-(1-((3-fluoro-4-(2-oxo-1,2-dihydropyrimidin-5-yl)phenyl)amino)-1-oxo-3,3-diphenylpropan-2-yl)-1-methyl-1H-pyrazole-5-carboxamide] |
| 50.1 | Cc1n[nH]cc1-c1ccc(NC(=O)[C@@H](NC(=O)c2ccnn2C)C(c2ccccc2)c2ccccc2)cc1F [Example 65, (S)—N-(1-((3-fluoro-4-(3-methyl-1H-pyrazol-4-yl)phenyl)amino)-1-oxo-3,3-diphenylpropan-2-yl)-1-methyl-1H-pyrazole-5-carboxamide] |
| 25.1 | Cn1nccc1C(=O)N[C@H](C(=O)Nc1ccc(-c2c[nH]c(=O)c3cccnc23)c(F)c1)C(c1ccccc1)c1ccccc1 [Example 66, (S)—N-(1-((3-fluoro-4-(5-oxo-5,6-dihydro-1,6-naphthyridin-8-yl)phenyl)amino)-1-oxo-3,3-diphenylpropan-2-yl)-1-methyl-1H-pyrazole-5-carboxamide] |
| 398 | CCn1nccc1C(=O)N[C@H](C(=O)Nc1ccc(-c2cn[nH]c(=O)c2)c(F)c1)C(c1ccccc1)c1ccccc1 [Example 67, (S)-1-ethyl-N-(1-((3-fluoro-4-(6-oxo-1,6-dihydropyridazin-4-yl)phenyl)amino)-1-oxo-3,3-diphenylpropan-2-yl)-1H-pyrazole-5-carboxamide] |
| 7.94 | Cn1nccc1C(=O)N[C@H](C(=O)Nc1ccc(-c2c[nH]c(=O)c3[nH]ccc23)c(F)c1)C(c1ccccc1)c1ccccc1 [Example 68, (S)—N-(1-((3-fluoro-4-(7-oxo-6,7-dihydro-1H-pyrrolo[2,3-c]pyridin-4-yl)phenyl)amino)-1-oxo-3,3-diphenylpropan-2-yl)-1-methyl-1H-pyrazole-5-carboxamide] |
| 79.4 | Cn1nccc1C(=O)N[C@H](C(=O)Nc1ccc(-c2c[nH]c(=O)c3[nH]cnc23)c(F)c1)C(c1ccccc1)c1ccccc1 [Example 69, (S)—N-(1-((3-fluoro-4-(4-oxo-4,5-dihydro-3H-imidazo[4,5-c]pyridin-7-yl)phenyl)amino)-1-oxo-3,3-diphenylpropan-2-yl)-1-methyl-1H-pyrazole-5-carboxamide] |
| 316 | Cn1nccc1C(=O)N[C@H](C(=O)Nc1ccc(-c2cn[nH]c(=O)c2)c(F)c1)C(c1ccccc1)c1ccccc1 [Example 70, (S)—N-(1-((3-fluoro-4-(6-oxo-1,6-dihydropyridazin-4-yl)phenyl)amino)-1-oxo-3,3-diphenylpropan-2-yl)-1-methyl-1H-pyrazole-5-carboxamide] |
